Columns and labels:
[1] = Moisture content by KF, initial and after storage; type: physicochemical
[2] = Solid form stability on storage, followed by XRPD; type: physicochemical; settings: storage for about 20 days or more
Description: The XRPD of the samples were determined by using Panalytical X'Pert Pro X-Ray Powder Diffractometer in the range 3-40 degree 2 theta and under tube voltage and current of 45 Kv and 40 mA respectively. Copper radiation of wavelength 1.54 angstrom and Xceletor detector was used.
The solvent was evaporated at a temperature of about 60° C. to about 65° C. through spray drying.

[3] = described in WO 2009/104021; cited from earlier work

| Moisture content by KF ([1]; after storage at 20° C. to 25° C. for 60 days) [%] | moisture absorbed (level) ([1]; general statement on the stable Form II) | Moisture content by KF ([1]; initial) [%] | Compound | conversion into any other solid form on storage [2] | conversion to another crystal form [3] | hygroscopicity [3] | thermodynamic stability [3] |
| --- | --- | --- | --- | --- | --- | --- | --- |
| 5.52 | not more than 2% | 4.48 | CCN(CC)CCNC(=O)c1c(C)[nH]c(/C=C2\C(=O)Nc3ccc(F)cc32)c1C [Example 1, butanedioic acid, hydroxy-, (2S)—, compound with N-[2-(diethylamino)ethyl]-5-[(Z)-(5-fluoro-1,2-dihydro-2-oxo-3H-indol-3-ylidine)methyl]-2,4-dimethyl-1H-pyrrole-3-carboxamide (1:1)] | does not convert into any other solid form | – | – | – |
| – | – | – | CCN(CC)CCNC(=O)c1c(C)[nH]c(/C=C2\C(=O)Nc3ccc(F)cc32)c1C [Form II of sunitinib L-malate, butanedioic acid, hydroxy-, (2S)—, compound with N-[2-(diethylamino)ethyl]-5-[(Z)-(5-fluoro-1,2-dihydro-2-oxo-3H-indol-3-ylidine)methyl]-2,4-dimethyl-1H-pyrrole-3-carboxamide (1:1)] | – | appears to readily convert to Form I | hygroscopic | thermodynamically unstable |
